Columns and labels:
[1] = tested on: rat EAE model; assay: Rat experimental autoimmune encephalomyelitis (EAE) model, preventive treatment; format: in vivo
Description: A further study was carried out to study the impact of Lp-PLA2 inhibitors on modulating M1/M2 imbalance. In this study, rats were induced to develop experimental autoimmune encephalomyelitis (EAE) by immunization with myelin basic protein (MBP) antigen and treated with a known Lp-PLA2 inhibitor: 5-((9-Methoxy-4-oxo-6,7-dihydro-4H-pyrimido[6,1-a]isoquinolin-2-yl)oxy)-2-(3-(trifluoromethyl)phenoxy)benzonitrile (See PCT application no. PCT/CN2011/001597). In this preventive treatment model, the compound was administered at day 0 (day of immunization) and continued to administer until day 22. The study lasted for 25 days. Rats were subsequently monitored for symptoms of EAE. Rats were immunized with MBP to develop EAE and symptoms were monitored daily. Plasma Lp-PLA2 activity, OxLDL, and LysoPC concentration were determined at different time points through the course of EAE.

[2] = tested on: proinflammatory (M1) and anti-inflammatory (M2) markers in macrophages; assay: Ex vivo analysis of M1 and M2 markers in macrophages of EAE rats by realtime PCR; design: species or system rat; details: splenic and CNS infiltrating macrophages of EAE rats
Description: Ex vivo analysis of proinflammatory (M1) and anti-inflammatory (M2) markers in control and compound treated EAE rats. Splenic macrophages were harvested at day 13 post MBP-immunization and assayed for expression of a variety of markers by realtime PCR. CNS infiltrating cells were harvested and macrophages were analyzed for expression of M1 and M2 markers by realtime PCR.

[3] = target: T1, Lp-PLA2 in human plasma (Homo sapiens, UniProt Q13093); assay: Lp-PLA2 human plasma assay (Thio-PAF assay); format: biochemical; details: pooled human plasma; lower bounds; read-out: pIC50 values in the thio-PAF assay (converted)
T1 construct: from tissue; host or cells: pooled human plasma
T1 sequence (Q13093 22-441): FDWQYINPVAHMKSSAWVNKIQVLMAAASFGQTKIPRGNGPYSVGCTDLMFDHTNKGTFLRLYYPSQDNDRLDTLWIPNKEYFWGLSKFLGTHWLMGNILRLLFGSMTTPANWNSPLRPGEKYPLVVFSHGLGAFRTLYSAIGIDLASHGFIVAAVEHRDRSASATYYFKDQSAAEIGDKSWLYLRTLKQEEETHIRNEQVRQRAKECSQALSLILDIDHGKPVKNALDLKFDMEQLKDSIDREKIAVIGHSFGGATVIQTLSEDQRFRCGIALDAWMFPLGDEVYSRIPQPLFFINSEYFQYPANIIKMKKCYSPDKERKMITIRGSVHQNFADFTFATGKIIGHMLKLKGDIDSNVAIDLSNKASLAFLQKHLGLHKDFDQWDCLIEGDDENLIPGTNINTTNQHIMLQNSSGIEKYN
Method in brief: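 Pooled human plasma preincubated 30 min with compounds, then given 2-thio-PAF substrate with CPM and NEM in 50 mM HEPES pH 7.4, 150 mM NaCl, 1 mM CHAPS. Reaction quenched after 2 min with TFA and read by fluorescence (ex 380/em 485) after 40 min at room temperature; pIC50 from curve fit.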

[4] = target: T2, recombinant human Lp-PLA2 (Homo sapiens, UniProt Q13093); assay: Recombinant human Lp-PLA2 assay (rhLp-PLA2, PED6 assay); format: biochemical; details: lower bounds; read-out: pIC50 values in the PED6 assay (converted)
T2 sequence (Q13093 22-441): T1 sequence (Q13093 22-441)
Method in brief: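 Compounds were preincubated 30 min with 4 nM […] rhLp-PLA2 in 50 mM HEPES pH 7.4, 150 mM NaCl, 1 mM CHAPS, then PED6 substrate […] was added for 20 min at room temperature in the dark. Fluorescence was read at ex 480/em 540, and pIC50 was fitted from 1:3 serial dilutions.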

COc1ccc2c(c1)CCn1c-2cc(Oc2ccc(Oc3cccc(C(F)(F)F)c3)c(C#N)c2)nc1=O [5-((9-Methoxy-4-oxo-6,7-dihydro-4H-pyrimido[6,1-a]isoquinolin-2-yl)oxy)-2-(3-(trifluoromethyl)phenoxy)benzonitrile] was tested, and the “Lp-PLA2 activity in rat EAE plasma” value ([1]; rat EAE plasma) was “decreased”, the “LysoPC levels in rat EAE plasma” value ([1]; rat EAE plasma) was “decreased” and the clinical disease ([1]; rat EAE, MBP immunization, administered day 0 to day 22) was “reduction in clinical disease”. The M1 markers [2] was “decrease” and the M2 markers [2] was “increase”.
With CC1(C)Cn2c(cc(OCc3cc(F)c(Oc4ccc(Cl)nc4)c(F)c3)nc2=O)N1 [Example E133, 7-((4-((6-chloropyridin-3-yl)oxy)-3,5-difluorobenzyl)oxy)-2,2-dimethyl-2,3-dihydroimidazo[1,2-c]pyrimidin-5(1H)-one] the IC50 [3] was ≤ 100 nM and the IC50 [4] was ≤ 1 nM.
C[C@@H]1Cn2c(cc(OCc3ccc(Oc4ccc(C(F)(F)F)nc4)c(F)c3)nc2=O)N1C [Example E107, (R)-7-((3-fluoro-4-((6-(trifluoromethyl)pyridin-3-yl)oxy)benzyl)oxy)-1,2-dimethyl-2,3-dihydroimidazo[1,2-c]pyrimidin-5(1H)-one] was tested, and the IC50 [3] was ≤ 100 nM and the IC50 [4] was ≤ 1 nM.
In the case of CN1c2cc(OCc3ccc(Oc4ccnc(Cl)c4)c(F)c3)nc(=O)n2CC1(C)C [Example E65, 7-((4-((2-chloropyridin-4-yl)oxy)-3-fluorobenzyl)oxy)-1,2,2-trimethyl-2,3-dihydroimidazo[1,2-c]pyrimidin-5(1H)-one], the IC50 [3] is reported as ≤ 100 nM and the IC50 [4] is reported as ≤ 1 nM.

Reference: patent US9051325B2, “Bicyclic [5,6] imidazo pyrimodone compounds for use in the treatment of diseases or conditions mediated by Lp-PLA2” (GlaxoSmithKline Intellectual Property Development Limited, priority 2013, dated 2015)
